Results reported in patent publication US6355799B1, “Substituted benzene compounds, process for their preparation, and herbicidal and defoliant compositions containing them” (ISK Americas Incorporated, priority 1997, dated 2002).

How the values were obtained:
Assay type in all cases: in vivo
[1] = system: redroot pigweed (Amaranthus retroflexus, AMARE); assay: Pre-emerge test, greenhouse herbicide activity screening; conditions: rated 14 days after application, 0 = no damage, 100 = complete death
Outline: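 Compounds in acetone were track-sprayed at 15-1000 g ai/ha (187 l/ha) on sandy loam pots: pre-emerge one day after seeding, post-emerge at 2-3 leaf stage with 0.25% v/v non-ionic surfactant. Phytotoxicity was rated 14 days later on a 0 (no damage) to 100 (complete death) scale.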

[2] = system: barnyardgrass (Echinochloa crus-galli, ECHCG); assay: as above; conditions: rated 14 days after application, 0 = no damage, 100 = complete death
Outline: (§1)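 Applied at 15–1000 g ai/ha from acetone in 187 l/ha spray volume. Post-emergence applications included 0.25% v/v non-ionic surfactant and reached plants sown 8–21 days before. Pre-emergence applications were incorporated by surface watering. Efficacy or crop damage was rated on a 0–100 scale after 14 days.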

[3] = system: green foxtail (Setaria viridis, SETVI); assay: as above; conditions: rated 14 days after application, 0 = no damage, 100 = complete death
Outline: as §1

[4] = system: ivyleaf morningglory (Ipomoea hederacea, IPOHE); assay: as above; conditions: rated 14 days after application, 0 = no damage, 100 = complete death
Outline: as §1

[5] = system: johnsongrass (Sorghum halepense, SORHA); assay: as above; conditions: rated 14 days after application, 0 = no damage, 100 = complete death
Outline: as §1

[6] = system: lambsquarters (Chenopodium album, CHEAL); assay: as above; conditions: rated 14 days after application, 0 = no damage, 100 = complete death
Outline: as §1

[7] = system: large crabgrass (Digitaria sanguinalis, DIGSA); assay: as above; conditions: rated 14 days after application, 0 = no damage, 100 = complete death
Outline: as §1

[8] = system: sicklepod (Cassia obtusifolia, CASOB); assay: as above; conditions: rated 14 days after application, 0 = no damage, 100 = complete death
Outline: as §1

[9] = system: velvetleaf (Abutilon theophrasti, ABUTH); assay: as above; conditions: rated 14 days after application, 0 = no damage, 100 = complete death
Outline: as §1

[10] = system: field corn (Zea mays L., var. Dekalb 535, CORN); assay: Pre-emerge test, crop safety; conditions: rated 14 days after application, 0 = no damage, 100 = complete death
Outline: (§2)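 Visual ratings on a 0-100 scale (0 no damage, 100 all plants dead) were taken at 14 days after treatment. Rates of 15-1000 g ai/ha in acetone, 187 l/ha, were sprayed onto soil one day after planting (pre-emerge) or onto 2-3 leaf plants with 0.25% v/v surfactant (post-emerge).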

[11] = system: upland rice (Oryza sp., var. Tebonnet, RICE); assay: Pre-emerge test, crop safety; conditions: rated 14 days after application, 0 = no damage, 100 = complete death
Outline: as §2

[12] = system: barnyardgrass (Echinochloa crus-galli, ECHCG); assay: Post-emerge test, greenhouse herbicide activity screening; conditions: post-emerge, 14 days after application, rating scale 0-100
Outline: (§3)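 Sandy loam pots; pre-emerge: sown 1 d pre-spray, surface-watered after, then bottom-watered. Post-emerge: sown 8–21 d before, 2–3 leaf stage, + 0.25% v/v NIS, bottom-watered. Acetone, 187 l/ha track spray, 15–1000 g ai/ha. 0–100 injury score, day 14.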

[13] = system: green foxtail (Setaria viridis, SETVI); assay: as above; conditions: post-emerge, 14 days after application, rating scale 0-100
Outline: as §3

[14] = system: ivyleaf morningglory (Ipomoea hederacea, IPOHE); assay: as above; conditions: post-emerge, 14 days after application, rating scale 0-100
Outline: as §3

[15] = system: johnsongrass (Sorghum halepense, SORHA); assay: as above; conditions: post-emerge, 14 days after application, rating scale 0-100
Outline: as §3

[16] = system: lambsquarters (Chenopodium album, CHEAL); assay: as above; conditions: post-emerge, 14 days after application, rating scale 0-100
Outline: as §3

[17] = system: large crabgrass (Digitaria sanguinalis, DIGSA); assay: as above; conditions: post-emerge, 14 days after application, rating scale 0-100
Outline: as §3

[18] = system: redroot pigweed (Amaranthus retroflexus, AMARE); assay: as above; conditions: post-emerge, 14 days after application, rating scale 0-100
Outline: as §3

[19] = system: sicklepod (Cassia obtusifolia, CASOB); assay: as above; conditions: post-emerge, 14 days after application, rating scale 0-100
Outline: as §3

[20] = system: velvetleaf (Abutilon theophrasti, ABUTH); assay: as above; conditions: post-emerge, 14 days after application, rating scale 0-100
Outline: as §3

[21] = system: field corn (Zea mays L., var. Dekalb 535, CORN); assay: Post-emerge test, crop safety; conditions: post-emerge, 14 days after application, rating scale 0-100
Outline: as §1

[22] = system: upland rice (Oryza sp., var. Tebonnet, RICE); assay: Post-emerge test, crop safety; conditions: post-emerge, 14 days after application, rating scale 0-100
Outline: as §1

COc1c(Cl)cc(F)c(-n2c(=O)cc(C(F)(F)F)n(C)c2=O)c1NC(=O)C=Cc1ccc(Cl)cc1 [2-84]
Pre-emerge Herbicidal Activity, phytotoxicity rating (0-100), AMARE ([1]; 63 g ai/ha): 80 | Pre-emerge Herbicidal Activity, phytotoxicity rating (0-100), AMARE ([1]; 250 g ai/ha): 100 | Pre-emerge Herbicidal Activity, phytotoxicity rating (0-100), ECHCG ([2]; 63 g ai/ha): 0 | Pre-emerge Herbicidal Activity, phytotoxicity rating (0-100), ECHCG ([2]; 250 g ai/ha): 0 | Pre-emerge Herbicidal Activity, phytotoxicity rating (0-100), SETVI ([3]; 63 g ai/ha): 0 | Pre-emerge Herbicidal Activity, phytotoxicity rating (0-100), SETVI ([3]; 250 g ai/ha): 50 | Pre-emerge Herbicidal Activity, phytotoxicity rating (0-100), IPOHE ([4]; 63 g ai/ha): 0 | Pre-emerge Herbicidal Activity, phytotoxicity rating (0-100), IPOHE ([4]; 250 g ai/ha): 0 | Pre-emerge Herbicidal Activity, phytotoxicity rating (0-100), SORHA ([5]; 63 g ai/ha): 0 | Pre-emerge Herbicidal Activity, phytotoxicity rating (0-100), SORHA ([5]; 250 g ai/ha): 0 | Pre-emerge Herbicidal Activity, phytotoxicity rating (0-100), CHEAL ([6]; 63 g ai/ha): 40 | Pre-emerge Herbicidal Activity, phytotoxicity rating (0-100), CHEAL ([6]; 250 g ai/ha): 100 | Pre-emerge Herbicidal Activity, phytotoxicity rating (0-100), DIGSA ([7]; 63 g ai/ha): 00 | Pre-emerge Herbicidal Activity, phytotoxicity rating (0-100), DIGSA ([7]; 250 g ai/ha): 0 | Pre-emerge Herbicidal Activity, phytotoxicity rating (0-100), CASOB ([8]; 63 g ai/ha): 0 | Pre-emerge Herbicidal Activity, phytotoxicity rating (0-100), CASOB ([8]; 250 g ai/ha): 0 | Pre-emerge Herbicidal Activity, phytotoxicity rating (0-100), ABUTH ([9]; 63 g ai/ha): 0 | Pre-emerge Herbicidal Activity, phytotoxicity rating (0-100), ABUTH ([9]; 250 g ai/ha): 80 | Pre-emerge phytotoxicity rating (0-100), crop damage, CORN ([10]; 63 g ai/ha): 0 | Pre-emerge phytotoxicity rating (0-100), crop damage, CORN ([10]; 250 g ai/ha): 0 | Pre-emerge phytotoxicity rating (0-100), crop damage, RICE ([11]; 63 g ai/ha): 0 | Pre-emerge phytotoxicity rating (0-100), crop damage, RICE ([11]; 250 g ai/ha): 0 | phytotoxicity rating ECHCG ([12]; 63 g ai/ha): 0 | phytotoxicity rating ECHCG ([12]; 250 g ai/ha): 0 | phytotoxicity rating SETVI ([13]; 63 g ai/ha): 30 | phytotoxicity rating SETVI ([13]; 250 g ai/ha): 0 | phytotoxicity rating IPOHE ([14]; 63 g ai/ha): 30 | phytotoxicity rating IPOHE ([14]; 250 g ai/ha): 70 | phytotoxicity rating SORHA ([15]; 63 g ai/ha): 0 | phytotoxicity rating SORHA ([15]; 250 g ai/ha): 0 | phytotoxicity rating CHEAL ([16]; 63 g ai/ha): 30 | phytotoxicity rating CHEAL ([16]; 250 g ai/ha): 80 | phytotoxicity rating DIGSA ([17]; 63 g ai/ha): 0 | phytotoxicity rating DIGSA ([17]; 250 g ai/ha): 0 | phytotoxicity rating AMARE ([18]; 63 g ai/ha): 80 | phytotoxicity rating AMARE ([18]; 250 g ai/ha): 100 | phytotoxicity rating CASOB ([19]; 63 g ai/ha): 20 | phytotoxicity rating CASOB ([19]; 250 g ai/ha): 100 | phytotoxicity rating ABUTH ([20]; 63 g ai/ha): 30 | phytotoxicity rating ABUTH ([20]; 250 g ai/ha): 100 | phytotoxicity rating CORN ([21]; 63 g ai/ha): 10 | phytotoxicity rating CORN ([21]; 250 g ai/ha): 10 | phytotoxicity rating RICE ([22]; 63 g ai/ha): 0 | phytotoxicity rating RICE ([22]; 250 g ai/ha): 20
